# Experimental data: patent publication US9771358B2, “Dihydropyrimidine compounds and their application in pharmaceuticals” (SUNSHINE LAKE PHARMA CO., LTD., priority 2014, dated 2017)
# Test system: HBV
# Assay: In-vitro anti-HBV activity in stable HBV-producing cell line (HepG2.2.15), HBV DNA by qPCR
# Format: cell-based
# Details: Hepatitis B virus, 168 h; HepG2.2.15 cells, HBV DNA in culture fluid, day 7, top concentration 16.4 μM
# Protocol: HBV DNA contents in cell culture fluid were detected by the qPCR-based assay and 50% effective concentration (EC50) values of the compounds against HBV were calculated. Specific procedures are as follows:
# HepG2.2.15 cells were seeded into each well of 96-well plates, 40,000 cells per well. Cells were treated with cell culture medium containing compounds with different concentrations for 24 hours after cell seeding. The final concentration of each compound was 16.4 μM in each well and each compound was diluted to desired concentration using 3-fold gradient dilution protocol, 9 diluted points in duplicate. The culture mediums containing the compounds were refreshed on day 4 post cell seeding. Culture media were collected from the HepG2.2.15 plates on day 7 post cell seeding followed by HBV DNA extraction.
# HBV DNA extraction: The HBV DNA extraction was performed using QIAamp 96 DNA Blood Kit (QIAGEN 51161).
# PCR for quantification: PCR mix was prepared according to PCR system. PCR mix was dispensed to 96-well optical reaction plates (special for quantification). The standard diluted proportionally was added. Then the sample was added; The plates were sealed with optical adhesive film; PCR system was performed according to programs.
# Percentage of HBV inhibition of DNA replication by compound was calculated using the following equation: % Inh.=[1-HBV DNA quantity of sample/HBV DNA quantity of DMSO control]×100.
# Calculating EC50 value of compounds to HBV replication: the EC50 values were calculated based on “four-parameter logistic equation” and using GraphPad Prism 5 analysis software.
row,Compound,EC50
1,"COC(=O)C1=C(CN2CCOC[C@@H]2CCC(=O)O)NC(c2nccs2)=N[C@H]1c1ccc(F)cc1Br [Example 16, 3-((S)-4-(((R)-6-(2-Bromo-4-fluorophenyl)-5-(methoxycarbonyl)-2-(thiazol-2-yl)-3,6-dihydropyrimidin-4-yl)methyl)morpholin-3-yl)propanoic acid]",9 nM
2,"CCOC(=O)C1=C(CN2CCOC[C@@H]2CCC(=O)O)NC(c2nccs2)=N[C@H]1c1ccc(F)cc1Cl [Example 17, 3-((S)-4-(((R)-6-(2-Chloro-4-fluorophenyl)-5-(ethoxycarbonyl)-2-(thiazol-2-yl)-3,6-dihydropyrimidin-4-yl)methyl)morpholin-3-yl)propanoic acid]",12 nM
3,"COC(=O)C1=C(CN2CCOC[C@@H]2CCC(=O)O)NC(c2nccs2)=N[C@H]1c1ccc(F)cc1Cl [Example 18, 3-((S)-4-(((R)-6-(2-Chloro-4-fluorophenyl)-5-(methoxycarbonyl)-2-(thiazol-2-yl)-3,6-dihydropyrimidin-4-yl)methyl)morpholin-3-yl)propanoic acid]",10 nM
4,"CCOC(=O)C1=C(CN2CCOC[C@@H]2CCC(=O)O)NC(c2nccs2)=N[C@H]1c1ccc(Cl)cc1Cl [Example 19, 3-((S)-4-(((R)-6-(2,4-Dichlorophenyl)-5-(ethoxycarbonyl)-2-(thiazol-2-yl)-3,6-dihydropyrimidin-4-yl)methyl)morpholin-3-yl)propanoic acid]",6 nM
5,"COC(=O)C1=C(CN2CCOC[C@@H]2CCC(=O)O)NC(c2nccs2)=N[C@H]1c1ccc(Cl)cc1Cl [Example 20, 3-((S)-4-(((R)-6-(2,4-Dichlorophenyl)-5-(methoxycarbonyl)-2-(thiazol-2-yl)-3,6-dihydropyrimidin-4-yl)methyl)morpholin-3-yl)propanoic acid]",5.5 nM
6,"CCOC(=O)C1=C(CN2CCO[C@@H](CCC(=O)O)C2)NC(c2nccs2)=N[C@H]1c1ccc(F)cc1Br [Example 21, 3-((S)-4-(((R)-6-(2-Bromo-4-fluorophenyl)-5-(ethoxycarbonyl)-2-(thiazol-2-yl)-3,6-dihydropyrimidin-4-yl)methyl)morpholin-2-yl)propanoic acid]",93.6 nM
7,"COC(=O)C1=C(CN2CCO[C@@H](CCC(=O)O)C2)NC(c2nccs2)=N[C@H]1c1ccc(F)cc1Br [Example 22, 3-((S)-4-(((R)-6-(2-Bromo-4-fluorophenyl)-5-(methoxycarbonyl)-2-(thiazol-2-yl)-3,6-dihydropyrimidin-4-yl)methyl)morpholin-2-yl)propanoic acid]",89 nM
8,"CCOC(=O)C1=C(CN2CCO[C@@H](CCC(=O)O)C2)NC(c2nccs2)=N[C@H]1c1ccc(F)cc1Cl [Example 23, 3-((S)-4-(((R)-6-(2-Chloro-4-fluorophenyl)-5-(ethoxycarbonyl)-2-(thiazol-2-yl)-3,6-dihydropyrimidin-4-yl)methyl)morpholin-2-yl)propanoic acid]",110 nM
9,"COC(=O)C1=C(CN2CCO[C@@H](CCC(=O)O)C2)NC(c2nccs2)=N[C@H]1c1ccc(F)cc1Cl [Example 24, 3-((S)-4-(((R)-6-(2-Chloro-4-fluorophenyl)-5-(methoxycarbonyl)-2-(thiazol-2-yl)-3,6-dihydropyrimidin-4-yl)methyl)morpholin-2-yl)propanoic acid]",107 nM
10,"CCOC(=O)C1=C(CN2CCO[C@@H](CCC(=O)O)C2)NC(c2nccs2)=N[C@H]1c1ccc(Cl)cc1Cl [Example 25, 3-((S)-4-(((R)-6-(2,4-Dichlorophenyl)-5-(ethoxycarbonyl)-2-(thiazol-2-yl)-3,6-dihydropyrimidin-4-yl)methyl)morpholin-2-yl)propanoic acid]",86 nM
11,"COC(=O)C1=C(CN2CCO[C@@H](CCC(=O)O)C2)NC(c2nccs2)=N[C@H]1c1ccc(Cl)cc1Cl [Example 26, 3-((S)-4-(((R)-6-(2,4-Dichlorophenyl)-5-(methoxycarbonyl)-2-(thiazol-2-yl)-3,6-dihydropyrimidin-4-yl)methyl)morpholin-2-yl)propanoic acid]",82 nM
12,"CCOC(=O)C1=C(CN2CCO[C@H](CCC(=O)O)C2)NC(c2nccs2)=N[C@@H]1c1ccc(F)cc1Br [Example 35, 3-((R)-4-(((S)-6-(2-Bromo-4-fluorophenyl)-5-(ethoxycarbonyl)-2-(thiazol-2-yl)-3,6-dihydropyrimidin-4-yl)methyl)morpholin-2-yl)propanoic acid]",> 12200 nM
13,"CCOC(=O)C1=C(CN2CCO[C@@H](CCC(=O)O)C2)NC(c2nccs2)=N[C@@H]1c1ccc(F)cc1Br [Example 36, 3-((S)-4-(((S)-6-(2-Bromo-4-fluorophenyl)-5-(ethoxycarbonyl)-2-(thiazol-2-yl)-3,6-dihydropyrimidin-4-yl)methyl)morpholin-2-yl)propanoic acid]",> 14500 nM
14,"CCOC(=O)C1=C(CN2CCO[C@H](CCC(=O)O)C2)NC(c2nccs2)=N[C@@H]1c1ccc(F)cc1Cl [Example 37, 3-((R)-4-(((S)-6-(2-Chloro-4-fluorophenyl)-5-(ethoxycarbonyl)-2-(thiazol-2-yl)-3,6-dihydropyrimidin-4-yl)methyl)morpholin-2-yl)propanoic acid]",> 16400 nM
15,"CCOC(=O)C1=C(CN2CCO[C@@H](CCC(=O)O)C2)NC(c2nccs2)=N[C@@H]1c1ccc(F)cc1Cl [Example 38, 3-((S)-4-(((S)-6-(2-Chloro-4-fluorophenyl)-5-(ethoxycarbonyl)-2-(thiazol-2-yl)-3,6-dihydropyrimidin-4-yl)methyl)morpholin-2-yl)propanoic acid]",> 16400 nM
16,"COC(=O)C1=C(CN2CCO[C@H](CCC(=O)O)C2)NC(c2nccs2)=N[C@@H]1c1ccc(F)cc1Cl [Example 39, 3-((R)-4-(((S)-6-(2-Chloro-4-fluorophenyl)-5-(methoxycarbonyl)-2-(thiazol-2-yl)-3,6-dihydropyrimidin-4-yl)methyl)morpholin-2-yl)propanoic acid]",> 15200 nM
17,"COC(=O)C1=C(CN2CCO[C@@H](CCC(=O)O)C2)NC(c2nccs2)=N[C@@H]1c1ccc(F)cc1Cl [Example 40, 3-((S)-4-(((S)-6-(2-Chloro-4-fluorophenyl)-5-(methoxycarbonyl)-2-(thiazol-2-yl)-3,6-dihydropyrimidin-4-yl)methyl)morpholin-2-yl)propanoic acid]",> 16400 nM
18,"COC(=O)C1=C(CN2CCO[C@H](CCC(=O)O)C2)NC(c2nccs2)=N[C@@H]1c1ccc(F)cc1Br [Example 41, 3-((R)-4-(((S)-6-(2-Bromo-4-fluorophenyl)-5-(methoxycarbonyl)-2-(thiazol-2-yl)-3,6-dihydropyrimidin-4-yl)methyl)morpholin-2-yl)propanoic acid]",> 12800 nM
19,"COC(=O)C1=C(CN2CCO[C@@H](CCC(=O)O)C2)NC(c2nccs2)=N[C@@H]1c1ccc(F)cc1Br [Example 42, 3-((S)-4-(((S)-6-(2-Bromo-4-fluorophenyl)-5-(methoxycarbonyl)-2-(thiazol-2-yl)-3,6-dihydropyrimidin-4-yl)methyl)morpholin-2-yl)propanoic acid]",> 15300 nM
20,"CCOC(=O)C1=C(CN2CCO[C@H](CCC(=O)O)C2)NC(c2nccs2)=N[C@@H]1c1ccc(Cl)cc1Cl [Example 43, 3-((R)-4-(((S)-6-(2,4-Dichlorophenyl)-5-(ethoxycarbonyl)-2-(thiazol-2-yl)-3,6-dihydropyrimidin-4-yl)methyl)morpholin-2-yl)propanoic acid]",> 11700 nM
21,"CCOC(=O)C1=C(CN2CCO[C@@H](CCC(=O)O)C2)NC(c2nccs2)=N[C@@H]1c1ccc(Cl)cc1Cl [Example 44, 3-((S)-4-(((S)-6-(2,4-Dichlorophenyl)-5-(ethoxycarbonyl)-2-(thiazol-2-yl)-3,6-dihydropyrimidin-4-yl)methyl)morpholin-2-yl)propanoic acid]",> 14900 nM
22,"COC(=O)C1=C(CN2CCO[C@H](CCC(=O)O)C2)NC(c2nccs2)=N[C@@H]1c1ccc(Cl)cc1Cl [Example 45, 3-((R)-4-(((S)-6-(2,4-dichlorophenyl)-5-(methoxycarbonyl)-2-(thiazol-2-yl)-3,6-dihydropyrimidin-4-yl)methyl)morpholin-2-yl)propanoic acid]",> 11300 nM
23,"COC(=O)C1=C(CN2CCO[C@@H](CCC(=O)O)C2)NC(c2nccs2)=N[C@@H]1c1ccc(Cl)cc1Cl [Example 46, 3-((S)-4-(((S)-6-(2,4-Dichlorophenyl)-5-(methoxycarbonyl)-2-(thiazol-2-yl)-3,6-dihydropyrimidin-4-yl)methyl)morpholin-2-yl)propanoic acid]",> 14200 nM
24,"CCOC(=O)C1=C(CN2CCOC[C@H]2CCC(=O)O)NC(c2nccs2)=N[C@@H]1c1ccc(F)cc1Br [Example 47, 3-((R)-4-(((S)-6-(2-Bromo-4-fluorophenyl)-5-(ethoxycarbonyl)-2-(thiazol-2-yl)-3,6-dihydropyrimidin-4-yl)methyl)morpholin-3-yl)propanoic acid]",> 16400 nM
25,"CCOC(=O)C1=C(CN2CCOC[C@@H]2CCC(=O)O)NC(c2nccs2)=N[C@@H]1c1ccc(F)cc1Br [Example 48, 3-((S)-4-(((S)-6-(2-Bromo-4-fluorophenyl)-5-(ethoxycarbonyl)-2-(thiazol-2-yl)-3,6-dihydropyrimidin-4-yl)methyl)morpholin-3-yl)propanoic acid]",> 10300 nM

# Same assay, conditions: Hepatitis B virus, HepG2.2.15; isomers of compound of formular (II)
row,Compound,EC50
1,"CCOC(=O)C1=C(CN2CCO[C@@H](CCC(=O)O)C2)NC(c2nccs2)=N[C@H]1c1ccc(F)cc1Cl [Example 23, 3-((S)-4-(((R)-6-(2-Chloro-4-fluorophenyl)-5-(ethoxycarbonyl)-2-(thiazol-2-yl)-3,6-dihydropyrimidin-4-yl)methyl)morpholin-2-yl)propanoic acid]",110 nM
